Reference: ChEMBL document CHEMBL1201862, “PubChem BioAssay data set” (2004)
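96-well plates; 48 h exposure; 5 concentrations. Endpoints by linear interpolation between flanking doses. Not reached: highest tested concentration assigned. GI50 marks 50% less growth.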 Calls of active or inactive are those of the source. No stated cut-off is given here; in the data, active = GI50 up to about 1.1 µM and inactive = higher.

Legend:
Test in all cases: NCI tumour cell line growth inhibition, 48 h
RXF 631 = tested on: RXF 631
SNB-78 = tested on: SNB-78
DMS-114 = tested on: DMS-114
LXFL 529 = tested on: LXFL 529
DLD-1 = tested on: DLD-1
XF498 = tested on: XF498
M19-MEL = tested on: M19-MEL
HOP-18 = tested on: HOP-18
KM-20L2 = tested on: KM-20L2

SMILES	GI50 (RXF 631)	GI50 (SNB-78)	GI50 (DMS-114)	GI50 (LXFL 529)	GI50 (DLD-1)	GI50 (XF498)	GI50 (M19-MEL)	GI50 (HOP-18)	GI50 (KM-20L2)
Cn1c2c(c3ccccc31)C1CCCCC1C1C(=O)NC(=O)C21 (stereo not given)	41.4 µM (inactive)	> 100 µM (inactive)	50.4 µM (inactive)	> 100 µM (inactive)	51.3 µM (inactive)	44.7 µM (inactive)	58.3 µM (inactive)	33.4 µM (inactive)	
CN(C)CCCNC(=O)c1cccc2nc3ccccc3nc12	32.6 µM (inactive)	14.3 µM (inactive)	12.3 µM (inactive)	20.2 µM (inactive)	> 41.6 µM (inactive)	1.14 µM (inactive)	6.58 µM (inactive)	> 42.5 µM (inactive)	25.1 µM (inactive)
CCOC(=O)COS(=O)(=O)C(F)(F)F	45.1 µM (inactive)	> 100 µM (inactive)	17.1 µM (inactive)	89.9 µM (inactive)	41.2 µM (inactive)	> 100 µM (inactive)	> 100 µM (inactive)	> 100 µM (inactive)	> 100 µM (inactive)
O=C(/C=C/c1ccc(Cl)c(Cl)c1)c1ccc(F)cc1	50 µM (inactive)	20.7 µM (inactive)	14.7 µM (inactive)	14.6 µM (inactive)	14.4 µM (inactive)		18.2 µM (inactive)	16.9 µM (inactive)	16.5 µM (inactive)
CP1(=O)CCCCC1		> 100 µM (inactive)	> 100 µM (inactive)	> 100 µM (inactive)	> 100 µM (inactive)	> 100 µM (inactive)	> 100 µM (inactive)	> 100 µM (inactive)	> 100 µM (inactive)
Cc1cc(N(CCC#N)CCC#N)ccc1/C=C(/NC(=O)/C=C/c1ccccc1)C(N)=O		97.1 µM (inactive)	> 100 µM (inactive)	> 100 µM (inactive)	> 100 µM (inactive)	39.7 µM (inactive)	> 100 µM (inactive)		> 100 µM (inactive)
O=C1C2C3C=CC(C2C(=O)N1CN1CCSCC1)C1C2C(=O)N(CN4CCSCC4)C(=O)C2C31 (stereo not given)	> 100 µM (inactive)	> 100 µM (inactive)	38.8 µM (inactive)	> 100 µM (inactive)	> 51.4 µM (inactive)	> 100 µM (inactive)	> 100 µM (inactive)	41.2 µM (inactive)	> 76.2 µM (inactive)
OCC(O)C(O)C(O)c1nn(-c2ccccc2)c2nc3cc(Cl)c(Cl)cc3nc12 (stereo not given)		54.1 µM (inactive)	31.6 µM (inactive)	57.5 µM (inactive)	30.1 µM (inactive)	23.4 µM (inactive)	49.1 µM (inactive)	67.5 µM (inactive)	37.2 µM (inactive)
COC(=O)/C(=C\c1ccc(N(CCC#N)CCC#N)cc1)NC(=O)c1cc([N+](=O)[O-])ccc1Cl		> 100 µM (inactive)	> 100 µM (inactive)	> 100 µM (inactive)	> 100 µM (inactive)		> 100 µM (inactive)	> 100 µM (inactive)	> 100 µM (inactive)
Clc1ccc(CCN2CCOCC2)c(Cl)c1	> 100 µM (inactive)	> 100 µM (inactive)	> 100 µM (inactive)		> 100 µM (inactive)	> 100 µM (inactive)	> 100 µM (inactive)	> 100 µM (inactive)	> 100 µM (inactive)
C/C(=N\NC(=S)N1CCC(N2CCCCC2)CC1)c1ccccn1		11.5 µM (inactive)	0.522 µM (active)	0.828 µM (active)	39.7 µM (inactive)	7 µM (inactive)	3.71 µM (inactive)	3.8 µM (inactive)	4.46 µM (inactive)
CCOc1ccc(NC(=O)C2=C(C)NC(C)=C(C(=O)Nc3ccc(OCC)cc3)C2c2ccc(O)c(OC)c2)cc1	53.5 µM (inactive)	44.1 µM (inactive)	56.5 µM (inactive)	67.3 µM (inactive)	96.2 µM (inactive)	18.5 µM (inactive)	> 100 µM (inactive)		> 100 µM (inactive)
CC1C(O)=C(O)c2ccccc2N1O (stereo not given)	> 100 µM (inactive)	> 100 µM (inactive)		> 100 µM (inactive)	> 100 µM (inactive)	> 100 µM (inactive)	> 100 µM (inactive)	93.8 µM (inactive)	> 100 µM (inactive)
Cc1ccc(NC(=O)CC/C(CC(=O)C(C)(C)C)=N/NC(=O)C[N+](C)(C)C)cc1C		> 100 µM (inactive)	> 100 µM (inactive)	> 100 µM (inactive)	> 100 µM (inactive)		> 100 µM (inactive)	> 100 µM (inactive)	> 100 µM (inactive)
CCCCCCNC(=O)CCN(C(=O)O)S(=O)(=O)c1ccc(NC(=O)c2ccccc2)cc1		> 100 µM (inactive)	20.4 µM (inactive)	> 95.9 µM (inactive)	19.1 µM (inactive)	> 100 µM (inactive)	> 49.3 µM (inactive)	> 100 µM (inactive)	> 100 µM (inactive)
CC1=NN(C(=O)Nc2ccc(Cl)cc2)C(=O)C2CCC(=O)N12 (stereo not given)		> 100 µM (inactive)	> 100 µM (inactive)	2.65 µM (inactive)	> 100 µM (inactive)	> 100 µM (inactive)	> 100 µM (inactive)		4.38 µM (inactive)
CC(=O)OC1C2CCC1C1C2C2(Cl)C(Cl)=C(Cl)C1(Cl)C2(Cl)Cl (stereo not given)		17.4 µM (inactive)	12.6 µM (inactive)	12.5 µM (inactive)	15.1 µM (inactive)	11 µM (inactive)	13.3 µM (inactive)	18.9 µM (inactive)	10.1 µM (inactive)
OC12c3ccccc3C1CCCCC2N1CCCC1 (stereo not given)		> 100 µM (inactive)	> 100 µM (inactive)	> 100 µM (inactive)			> 100 µM (inactive)	> 100 µM (inactive)	> 100 µM (inactive)
CCN(CC)CCCC(C)Nc1ccnc2ccc3nn(C)nc3c12 (stereo not given)		52.7 µM (inactive)		55.5 µM (inactive)	55 µM (inactive)		49 µM (inactive)	> 100 µM (inactive)	33 µM (inactive)
Cc1ccc(CCNC(=S)SCC(NC(=O)CCC(N)C(=O)O)C(=O)NCC(=O)O)cc1 (stereo not given)	2.2 µM (inactive)		0.873 µM (active)	0.75 µM (active)	0.764 µM (active)	1.49 µM (inactive)	1.7 µM (inactive)	2.52 µM (inactive)	2.12 µM (inactive)
Cc1cc2c(cc1C)[n+]([O-])c(C(=O)CC(=O)C(=O)Nc1c(C(C)C)cccc1C(C)C)c(C)[n+]2[O-]		> 100 µM (inactive)	> 100 µM (inactive)	> 100 µM (inactive)		> 100 µM (inactive)	> 100 µM (inactive)	> 100 µM (inactive)	> 100 µM (inactive)
CCOP(=O)(OCC)C1CCCCOC1=O (stereo not given)	> 100 µM (inactive)	> 100 µM (inactive)	> 100 µM (inactive)	> 100 µM (inactive)	> 100 µM (inactive)	> 100 µM (inactive)	> 100 µM (inactive)	44.2 µM (inactive)	> 100 µM (inactive)
C[C@@H](NC1CCC[C@H]1O)c1ccccc1 (stereo not given in full)		> 100 µM (inactive)	> 100 µM (inactive)	> 100 µM (inactive)	> 100 µM (inactive)	5.66 µM (inactive)	> 100 µM (inactive)	> 100 µM (inactive)	> 100 µM (inactive)
O=C(Cn1ccnc1[N+](=O)[O-])NCc1ccc(F)cc1	> 100 µM (inactive)		> 100 µM (inactive)	> 100 µM (inactive)		> 100 µM (inactive)	> 100 µM (inactive)	> 100 µM (inactive)	> 100 µM (inactive)
Nc1c(C(=O)Nc2ccccc2)[n+]([O-])c2ccccc2[n+]1[O-]		16.9 µM (inactive)	9.62 µM (inactive)	14.4 µM (inactive)	15.6 µM (inactive)	16.6 µM (inactive)	15 µM (inactive)	13.5 µM (inactive)	17.7 µM (inactive)
CC1=C(C(=O)CC(=O)C(=O)Nc2ccccc2)Sc2ccccc2N1	> 100 µM (inactive)	> 100 µM (inactive)	> 100 µM (inactive)	> 100 µM (inactive)	> 100 µM (inactive)	> 100 µM (inactive)	> 100 µM (inactive)	78.3 µM (inactive)	> 100 µM (inactive)
COC(=O)C12C(=O)O[C@H](C)C1(O)C(C)C(=O)N2C (stereo not given in full)		> 100 µM (inactive)	> 100 µM (inactive)		> 100 µM (inactive)	0.662 µM (active)	> 100 µM (inactive)	> 100 µM (inactive)	
CN(C)CC1CC/C(=C\c2ccc(Cl)c(Cl)c2)C1=O (stereo not given)		31.5 µM (inactive)	> 47.8 µM (inactive)	13.2 µM (inactive)	16 µM (inactive)	> 46.8 µM (inactive)	29.4 µM (inactive)	> 62.4 µM (inactive)	> 34.5 µM (inactive)
